Reference: the supplement of paper PMC10883282

Legend:
Assay in all cases: standardised AUC of viability dose-response curve (72 h) (fraction (0-1)); higher = less growth inhibition (more resistant)
KHOS-240S = test system: KHOS-240S
Summary of the method: (§1)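 In 384-well plates, sarcoma cell lines were exposed for 72 h, in triplicate, to 2.5 µl of a 1:3 compound dilution series whose compound-plate concentrations ran from 10 mM to 0.0002 mM. Four-parameter log-logistic models were fitted per drug and cell line to ATPLite viability, scaled 1 (full) to 0 (none). From these fits, a modified drexplorer computeAUC gave the standardised area under the curve in log-dose space. Here 1 marks no response and 0 full response.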

MES-SA = test system: MES-SA
Summary of the method: as §1

SK-ES-1 = test system: SK-ES-1
Summary of the method: as §1

HT1080 = test system: HT1080
Summary of the method: as §1

SW684 = test system: SW684
Summary of the method: as §1

KHOS-NP = test system: KHOS-NP
Summary of the method: as §1

A204 = test system: A204
Summary of the method: as §1

G401 = test system: G401
Summary of the method: as §1

HS729 = test system: HS729
Summary of the method: as §1

SW1353 = test system: SW1353
Summary of the method: as §1

SW872 = test system: SW872
Summary of the method: as §1

RD = test system: RD
Summary of the method: as §1

SYO-1 = test system: SYO-1
Summary of the method: as §1

SW982 = test system: SW982
Summary of the method: as §1

SK-LMS-1 = test system: SK-LMS-1
Summary of the method: as §1

VA-ES-BJ = test system: VA-ES-BJ
Summary of the method: as §1

RD-ES = test system: RD-ES
Summary of the method: as §1

SMILES | standardised AUC (KHOS-240S) | standardised AUC (MES-SA) | standardised AUC (SK-ES-1) | standardised AUC (HT1080) | standardised AUC (SW684) | standardised AUC (KHOS-NP) | standardised AUC (A204) | standardised AUC (G401) | standardised AUC (HS729) | standardised AUC (SW1353) | standardised AUC (SW872) | standardised AUC (RD) | standardised AUC (SYO-1) | standardised AUC (SW982) | standardised AUC (SK-LMS-1) | standardised AUC (VA-ES-BJ) | standardised AUC (RD-ES)
CO[C@H]1C[C@@H]2CC[C@@H](C)[C@@](O)(O2)C(=O)C(=O)N2CCCC[C@H]2C(=O)O[C@H]([C@H](C)C[C@@H]2CC[C@@H](OP(C)(C)=O)[C@H](OC)C2)CC(=O)[C@H](C)/C=C(\C)[C@@H](O)[C@@H](OC)C(=O)[C@H](C)C[C@H](C)/C=C/C=C/C=C/1C [RIDAFOROLIMUS] | 0.867 | 0.542 | 0.682 | 0.925 | 0.798 | 0.97 | 0.643 | 0.832 | 0.937 | 0.796 | 0.686 | 0.748 | 0.874 | 0.729 | 0.645 | 0.587 | 0.764
COCc1c(-c2cc3cc(C)cc(OC)c3s2)c2c(N)ncnn2c1CN1CCNC(=O)C1 [ROGARATINIB] | 0.854 | 0.85 | 0.907 | 0.999 | 0.974 | 0.987 | 0.755 | 0.807 | 0.776 | 0.851 | 0.943 | 0.958 | 0.751 | 0.93 | 0.952 | 0.962 | 0.934
N#CC[C@H](C1CCCC1)n1cc(-c2ncnc3[nH]ccc23)cn1 [RUXOLITINIB] | 0.944 | 0.944 | 0.981 | 0.994 | 0.948 | 0.977 | 0.951 | 0.97 | 0.951 | 0.982 | 0.945 | 0.992 | 0.978 | 0.936 | 0.987 | 0.973 | 0.989
Cc1cc(C)c(/C=C2\C(=O)Nc3ccccc32)[nH]1 [SEMAXANIB] | 0.939 | 0.976 | 0.978 | 0.983 | 0.939 | 0.98 | 0.888 | 0.983 | 0.938 | 0.979 | 0.993 | 0.993 | 0.857 | 0.936 | 0.954 | 0.947 | 0.968
CN[C@@H]1C[C@H]2O[C@@](C)([C@@H]1OC)n1c3ccccc3c3c4c(c5c6ccccc6n2c5c31)C(=O)NC4 [STAUROSPORINE] | 0.284 | 0.435 | 0.398 | 0.313 | 0.427 | 0.369 | 0.309 | 0.331 | 0.409 | 0.294 | 0.337 | 0.343 | 0.288 | 0.25 | 0.376 | 0.346 | 0.435
Cc1nc(-c2cn3c(n2)-c2ccc(-c4cnn(C(C)(C)C(N)=O)c4)cc2OCC3)n(C(C)C)n1 [TASELISIB] | 0.843 | 0.664 | 0.68 | 0.989 | 0.702 | 0.975 | 0.675 | 0.744 | 0.77 | 0.855 | 0.76 | 0.727 | 0.84 | 0.826 | 0.771 | 0.727 | 0.675
CN1CCC(COc2cnc(-c3cccc(Cn4nc(-c5cccc(C#N)c5)ccc4=O)c3)nc2)CC1 [TEPOTINIB] | 0.963 | 0.98 | 0.97 | 0.972 | 0.983 | 0.954 | 0.985 | 0.978 | 0.928 | 0.987 | 0.972 | 0.998 | 0.945 | 0.985 | 0.732 | 0.898 | 0.979
COc1cc2nccc(Oc3ccc(NC(=O)Nc4cc(C)on4)c(Cl)c3)c2cc1OC [TIVOZANIB] | 0.954 | 0.931 | 0.971 | 0.995 | 0.985 | 0.983 | 0.658 | 0.933 | 0.971 | 0.97 | 0.982 | 0.985 | 0.807 | 0.974 | 0.956 | 0.995 | 0.974
C[C@@H]1CCN(C(=O)CC#N)C[C@@H]1N(C)c1ncnc2[nH]ccc12 [TOFACITINIB] | 0.976 | 0.989 | 0.989 | 0.982 | 0.967 | 0.982 | 0.972 | 0.994 | 0.876 | 0.942 | 0.932 | 1 | 0.925 | 0.993 | 0.978 | 0.958 | 1
CC(=O)Nc1cccc(-n2c(=O)n(C3CC3)c(=O)c3c(Nc4ccc(I)cc4F)n(C)c(=O)c(C)c32)c1 [TRAMETINIB] | 0.783 | 0.827 | 0.958 | 0.577 | 0.714 | 0.523 | 0.782 | 0.651 | 0.761 | 0.709 | 0.619 | 0.65 | 0.825 | 0.897 | 0.533 | 0.756 | 0.989
Cc1cc(Nc2ncnc3ccc(NC4=NC(C)(C)CO4)cc23)ccc1Oc1ccn2ncnc2c1 [TUCATINIB] | 0.983 | 0.946 | 0.974 | 0.988 | 0.976 | 0.989 | 0.966 | 0.979 | 0.928 | 0.915 | 0.981 | 1 | 0.97 | 0.984 | 0.985 | 0.951 | 0.978
COc1cc2/c(=N/c3ccc(Br)cc3F)nc[nH]c2cc1OCC1CCN(C)CC1 [VANDETANIB] | 0.879 | 0.912 | 0.853 | 0.968 | 0.954 | 0.961 | 0.843 | 0.925 | 0.921 | 0.906 | 0.886 | 0.852 | 0.757 | 0.836 | 0.894 | 0.955 | 0.911
CCCS(=O)(=O)Nc1ccc(F)c(C(=O)c2c[nH]c3ncc(-c4ccc(Cl)cc4)cc23)c1F [VEMURAFENIB] | 0.979 | 0.956 | 0.959 | 0.983 | 0.97 | 0.983 | 0.977 | 0.992 | 0.978 | 0.946 | 0.802 | 0.978 | 0.978 | 0.949 | 0.93 | 0.983 | 0.989
C[C@@H](c1ccc2nccn2c1)n1nnc2ncc(-c3cnn(C)c3)nc21 [VOLITINIB] | 1 | 0.994 | 0.996 | 0.982 | 0.986 | 0.981 | 0.974 | 0.992 | 0.998 | 0.991 | 0.992 | 0.988 | 0.998 | 0.993 | 0.725 | 0.883 | 0.993
C=CC(=O)N1CCC([C@@H]2CCNc3c(C(N)=O)c(-c4ccc(Oc5ccccc5)cc4)nn32)CC1 [ZANUBRUTINIB] | 0.976 | 0.981 | 0.977 | 0.987 | 0.97 | 1 | 0.957 | 0.977 | 0.964 | 0.934 | 0.941 | 0.966 | 0.974 | 0.941 | 1 | 0.973 | 0.974
